Calls of active or inactive are those of the source. The calls are words filed in the database; no cut-off is given here.
How the values were obtained:
Staphylococcus aureus [1] = assay: Antibacterial activity against Staphylococcus aureus ATCC 25923 by microplate assay method; assay type: functional, organism-based
[2] = Inhibition of Saccharomyces cerevisiae alpha-glucosidase using PNP-G as substrate incubated for 20 mins followed by substrate addition
Vibrio parahaemolyticus = assay: Antibacterial activity against Vibrio parahaemolyticus ATCC 17749 by microplate assay method; assay type: functional, organism-based
Vibrio alginolyticus = assay: Antibacterial activity against Vibrio alginolyticus ATCC 17802 by microplate assay method; assay type: functional, organism-based
Staphylococcus aureus [3] = assay: Antibacterial activity against methicillin-resistant Staphylococcus aureus ATCC 33591 by microplate assay method; assay type: functional, organism-based
[4] = tested on: Staphylococcus epidermidis; assay: Antibacterial activity against Staphylococcus albus ATCC 8032 by microplate assay method; assay type: functional, organism-based

SMILES | Activity (Staphylococcus aureus [1]) | IC50 [2] [µM] | Activity (Vibrio parahaemolyticus) | Activity (Vibrio alginolyticus) | Activity (Staphylococcus aureus [3]) | Activity [4]
Cc1cc2c(c(O)c1C)C(=O)C[C@@H](O)[C@H]2O (relative stereo) | inactive | 21 | inactive | inactive | inactive | inactive
O=C1CC[C@H](O)c2cccc(O)c21 | inactive | 70 | inactive | inactive | inactive | inactive
CCCc1cc(=O)c2c(OC)cccc2o1 | inactive | 84 | inactive | inactive | inactive | inactive
C[C@H]1O[C@H](O[C@H]2[C@H](O)[C@@H](O)[C@@H](O[C@H]3[C@H](O)[C@@H](O)C(O)O[C@@H]3CO)O[C@@H]2CO)[C@H](O)[C@@H](O)[C@@H]1N[C@H]1C=C(CO)[C@@H](O)[C@H](O)[C@H]1O (stereo partly specified) [ACARBOSE] | – | 3 | – | – | – | –
COc1cc(O)cc2oc(C)c(C)c(=O)c12 | inactive | 13 | inactive | inactive | inactive | inactive
CCc1c(OC)cc2c(=O)c(C)c(C)oc2c1O | inactive | 100 | inactive | inactive | inactive | inactive
CCc1c(OC)cc2c(c1O)C(=O)[C@H](C)[C@@H](C)[C@@H]2O | inactive | 35 | inactive | inactive | inactive | inactive
C/C=C(\C)[C@@H]1OC(=O)C(C)(C)[C@H](O)[C@H]1C | inactive | 31 | inactive | inactive | inactive | inactive
CCc1c(OC)cc2c(c1O)C(=O)[C@H](C)[C@@H](C)[C@H]2O | inactive | 155 | inactive | inactive | inactive | inactive
COc1cccc2c1C(=O)CC(C)O2 (stereo unspecified) | inactive | 15 | inactive | inactive | inactive | inactive
COc1cccc2c1[C@H](O)CCC2=O | inactive | 90 | inactive | inactive | inactive | inactive
CC(=O)OC/C=C(\C)[C@@H]1OC(=O)C(C)(C)[C@@H](O)[C@H]1C | inactive | 240 | inactive | inactive | inactive | inactive
CCc1c(O)cc2c(=O)oc(C)c(C)c(=O)c2c1OC | inactive | 54 | inactive | inactive | inactive | inactive
CCc1ccc2c(c1O)C(=O)[C@](O)(CC)[C@@H](O)C2 | inactive | 38 | inactive | inactive | inactive | inactive
C/C(=C\CO)[C@@H]1OC(=O)C(C)(C)[C@@H](O)[C@H]1C | inactive | 20 | inactive | inactive | inactive | inactive
C/C=C(\C)[C@@H]1OC(=O)C(C)(C)[C@@H](O)[C@H]1C | inactive | 16 | inactive | inactive | inactive | inactive

From ChEMBL document CHEMBL4387791, “Bioactive Polyketide Derivatives from the Mangrove-Derived Fungus Daldinia eschscholtzii HJ004” (J Nat Prod, 2019)
